Data on 6 compounds can be found in ChEMBL document CHEMBL1135335, “Multisubstrate analogue inhibitors of glucosamine-6-phosphate synthase from Candida albicans” (Bioorg Med Chem Lett, 2002).

The structures appear in SMILES notation. Activity calls are given as the source filed them. No cut-off for these calls is given here.

The first test deals with Saccharomyces cerevisiae. Nature of the test: Inhibitory activity against glucosamine-6-phosphate synthase (GFAT) isolated from Saccharomyces cerevisiae at concentrations <10 mM; NI means no inhibition.
Regarding `NC(CP(=O)(O)O)C(=O)O` (configuration not stated), the inhibition entry was “inactive”.

Tested on in another test: not listed separately
Nature of the test: Concentration required to inhibit glucosamine-6-phosphate synthase (GFAT) isolated from Candida albicans.
In turn, `NC(CCCCCP(=O)(O)O)C(=O)O` (configuration not stated) [AP-7] showed an IC50 of 270 µM.

For `NC(CCP(=O)(O)O)C(=O)O` (configuration not stated), inhibition was half-maximal at 10 µM (IC50).

The compound `NC(CP(=O)(O)O)C(=O)O` (configuration not stated) displayed an IC50 of 0.01 µM. Compared with the last compound, the IC50 is about 1000-fold lower.

As to `NC(CCCCP(=O)(O)O)C(=O)O` (configuration not stated), it took 250 µM to reach half-maximal inhibition (IC50).

Take `NC(CCCP(=O)(O)O)C(=O)O` (configuration not stated): half-maximal inhibition (IC50) was put at 210 µM.

Take `O=C(O)[C@@H]1C[C@H](CP(=O)(O)O)CCN1` [SELFOTEL]: the IC50 is 0.4 µM.
